Measurements published in the NIST ThermoML archive (doi:10.1016/j.jct.2011.07.018).

Assay: excess molar enthalpy (molar enthalpy of mixing); xn = mol fraction of the nth substance listed
Conditions: 298.15 K, 101 kPa, Liquid, isothermal titration calorimeter

CCCCCC(=O)O [hexanoic acid] + CN(C)C=O
Conditions	excess molar enthalpy [kcal/mol]
x2 = 0.048	-0.0576
x2 = 0.092	-0.11
x2 = 0.132	-0.158
x2 = 0.169	-0.202
x2 = 0.203	-0.243
x2 = 0.24	-0.288
x2 = 0.274	-0.328
x2 = 0.304	-0.363
x2 = 0.333	-0.394
x2 = 0.359	-0.42
x2 = 0.383	-0.442
x2 = 0.412	-0.467
x2 = 0.439	-0.484
x2 = 0.464	-0.496
x2 = 0.486	-0.503
x2 = 0.502	-0.506
x2 = 0.516	-0.506
x2 = 0.53	-0.505
x2 = 0.543	-0.503
x2 = 0.556	-0.499
x2 = 0.568	-0.494
x2 = 0.579	-0.489
x2 = 0.589	-0.483
x2 = 0.602	-0.475
x2 = 0.613	-0.467
x2 = 0.625	-0.458
x2 = 0.635	-0.449
x2 = 0.645	-0.44
x2 = 0.656	-0.43
x2 = 0.666	-0.42
x2 = 0.676	-0.409
x2 = 0.685	-0.4
x2 = 0.694	-0.39
x2 = 0.702	-0.381
x2 = 0.71	-0.372
x2 = 0.718	-0.363
x2 = 0.726	-0.352
x2 = 0.735	-0.342
x2 = 0.743	-0.332
x2 = 0.75	-0.323
x2 = 0.757	-0.314
x2 = 0.764	-0.306
x2 = 0.77	-0.298
x2 = 0.776	-0.291
x2 = 0.782	-0.283
x2 = 0.789	-0.275
x2 = 0.794	-0.268
x2 = 0.799	-0.261
x2 = 0.812	-0.241
x2 = 0.824	-0.226
x2 = 0.836	-0.21
x2 = 0.849	-0.194
x2 = 0.862	-0.177
x2 = 0.875	-0.159
x2 = 0.889	-0.142
x2 = 0.903	-0.124
x2 = 0.916	-0.107
x2 = 0.929	-0.0906
x2 = 0.942	-0.0736
x2 = 0.956	-0.0557
x2 = 0.97	-0.0373
x2 = 0.985	-0.0186
